Molecules are shown by their SMILES. Entries after “also recorded” stand apart in the source; their conditions may differ. Like-named read-outs stand apart in the source and are kept apart here.

Assay [1] addresses T1, iNOS (Homo sapiens (Human), UniProt P35228). The assay is classed as biochemical.
Assay [2] addresses nNOS (Homo sapiens (Human), UniProt P29475). The note with it: cited from earlier work.
For assay [3], the target named is T1, iNOS. The note with it: cited from earlier work.
Another assay deals with melanoma A375 cells. Nature of the assay: L-arginine-induced intracellular NO, Griess reagent. It is filed as cell-based, human.
The subject of assay [4] is human primary melanocytes. Nature of the assay: MTT proliferation of primary melanocytes. The note with it: 12-day period, DETA/NO exposure. The assay is classed as cell-based.
Description: (§1) Proliferation analysis: MTT Colorimetric Assay was utilized for cell proliferation analysis according to manufacturer's protocol (Vybrant®, Molecular Probes, Inc. Eugene, Oreg.).
The subject of a further assay is human melanoma cells. Nature of the assay: MTT proliferation of melanoma cells under DETA/NO stress. It is filed as cell-based.
Assay [5] relates to nNOS expression in normal melanocytes. Kind of assay: nNOS expression in normal melanocytes. It is filed as cell-based, human. The note with it: DETA/NO.
Description: Cell Protein Extraction and Western Blot Analysis: Melanoma cells were collected and lysed as described previously. […] Measurement of signal intensity on membranes was done using an imaging densitometer with Multi-Analyst software (Bio-Rad). All data were expressed as fold change of the control based on the calculation of density values of the specific protein bands standardized by α-Tubulin/actin.
For assay [6], the target named is T2, iNOS (Mus musculus (Mouse), UniProt P29477). The note with it: read-out: Ki iNOS; recombinant isozyme.
Assay [7] deals with T3, eNOS (Bos taurus (Bovine), UniProt P29473). The note with it: read-out: Ki eNOS; recombinant isozyme.
For assay [8], the target named is nNOS (Rattus norvegicus (Rat), UniProt P29476). Kind of assay: biochemical. As to conditions: recombinant isozyme.
In assay [9] the test system is nNOS. Kind of assay: biochemical. The note with it: for Selectivity nNOS/eNOS: Ki(eNOS)/Ki(nNOS); for Selectivity nNOS/iNOS: Ki(iNOS)/Ki(nNOS).
Assay [10] concerns metastatic melanoma cells. Kind of assay: Matrigel invasion assay. It is filed as cell-based, human.
Protocol: Invasion Assay: The invasiveness of melanoma cells was assessed on the basis of invasion of cells through Matrigel-coated membrane (BD Biosciences). Briefly, melanoma cells were collected and reconstituted in serum-free medium. Prepared cells were added to the upper Matrigel-coated insert. After 20 hr incubation, cells were fixed and stained with hematoxylin. Membranes were visualized microscopically and the invading cells on each of triplicate membranes were counted and averaged for 20 random fields.
For assay [11], the system named is metastatic melanoma A375 cells in skin equivalents. Kind of assay: 3-dimensional skin reconstructs, melanoma growth. It is filed as cell-based, human. The note with it: 2 weeks.
Protocol: 3-Dimensional Skin Reconstructs: A 3-dimensional skin reconstruct was achieved using a literature method. […] Once the epidermus is adhered to the dermal layer, skin equivalents are then lifted to the air liquid interface to allow keratinocytes differentiation. […] By the end of experiments, the skin equivalents were fixed and stained with H&E for pathological evaluation. S-100 staining as a melanocyte biomarker was performed to visualize and confirm the lesion of melanoma.
Assay [12] has as its target T3, eNOS. Kind of assay: biochemical.
Assay [13] deals with T2, iNOS. Kind of assay: biochemical.
A further assay concerns Sk-Mel28. Kind of assay: Cytotoxicity in melanoma cell line. It is filed as cell-based. The note with it: Homo sapiens, SK-MEL-28.
The test system of another assay is wm3211. Nature of the assay: Cytotoxicity in melanoma cell line. The note with it: Homo sapiens. The assay is classed as cell-based.
Assay [14] deals with metastatic melanoma A375 cells. Kind of assay: Adhesion of A375 cells to fibroblast monolayer. It is filed as cell-based, human. As to conditions: 2 μM, 1 hour.
Protocol: Non-adhesive cells were washed away by PBS and MTT reagent was utilized to determine the relative amount of cells that adhered to FB cells, which is calculated as: relative adhesive cell OD value=(sample OD value (adhesive melanoma cells+FB)−negative control OD value (FB only)). The mean changes of OD values with treatments (control is set as 0) represented the relative effects of compounds on melanoma adhesion.
For assay [15], the system named is nNOS expression in melanoma cells. Kind of assay: nNOS expression by immunoblotting in melanoma cells. It is filed as cell-based, human. The note with it: for induction of nNOS by DETA/NO or UVB radiation: as low as 1 μM. (In general: A western blot detects proteins with antibodies after separation by electrophoresis.)
Protocol: Cell Protein Extraction and Western Blot Analysis: Melanoma cells were collected and lysed as described previously. […] Measurement of signal intensity on membranes was done using an imaging densitometer with Multi-Analyst software (Bio-Rad). All data were expressed as fold change of the control based on the calculation of density values of the specific protein bands standardized by α-Tubulin/actin. UV radiation and cell treatment: Cells were grown to about 70% confluence and media was removed completely for UV radiation. For UVA radiation, 5 ml of PBS was added to one 10-cm dish of cells and ice cubes were placed next to dishes for absorbing the heat generated by UVA. […] The UV intensity was measured by a radiometer with proper probes. Fresh media was added back after radiation and cells were returned to 37° C. incubator for recovering.
The subject of another assay is Lu1205 cells. Nature of the assay: Total NOS activity, Ultrasensitive Colorimetric Assay. The assay is classed as cell-based, human.

Protocol for Lu1205 cells: Measurements of intracellular Nitric Oxide levels and NOS activities: NO was measured as nitrite by interaction with Griess reagent (Enzo Life Sciences, Lausen, Switzerland). […] The NOS activity was analyzed by Ultrasensitive Colorimetric Assay according to manufacturer's protocol (Oxford Biomedical Research, Inc., Oxford, Mich.).
Description for Sk-Mel28: as §1
Description for human melanoma cells: as §1
Description for wm3211: as §1

In general, Ki refers to the dissociation constant of the complex between target and ligand, obtained from inhibition or displacement. As to `N=C(N)SCCc1cccc(CCSC(=N)N)c1` [PBIT, 1,3-phenylene-bis(1,2-ethanediyl)bisisothiourea], on iNOS [1], the “iNOS selectivity over nNOS” value is reported as 1.5 fold. The Ki on nNOS [2] is 0.029 µM; at iNOS [3], 0.019 µM.
Turning to `Oc1ccc(C=Cc2cc(O)cc(O)c2)cc1` [resveratrol], the “L-arginine-induced NO generation” value in the assay on melanoma A375 cells (up to 50 μM) was “not affected at all; also recorded: failed to inhibit”.
Turning to `NCCN(CCN)[N+]([O-])=NO` [DETA/NO, 1-[N-(2-Aminoethyl)-N-(2-ammonioethyl)amino]diazen-1-ium-1,2-diolate, reference compound], the “cell proliferation of primary melanocytes” value in assay [4] is “significantly stimulated”. In the assay with human melanoma cells (100 μM), the “proliferation of metastatic Lu1205 and SK-Mel28 cells” value is “Marked stimulation of proliferation”; the “proliferation of primary melanoma wm3211 cells” value was “not significant”. Further, the “nNOS induction in melanocytes” value in assay [5] is listed as “not evident”.
Consider `Cc1cc(N)nc(C[C@H]2CNC[C@H]2NCCNCc2cccc(C(F)(F)F)c2)c1` [Compound 3, N^1-((3S,4S)-4-((6-amino-4-methylpyridin-2-yl)methyl)pyrrolidin-3-yl)-N^2-(3-(trifluoromethyl)benzyl)ethane-1,2-diamine], for which the Ki on iNOS [6] was 13.6 µM; at eNOS [7], 116 µM; at nNOS [8], 0.21 µM. For the same molecule, the “Selectivity nNOS/eNOS” value in the assay with nNOS [9] is reported as 552.4. Moreover, in the assay with nNOS [9], the “Selectivity nNOS/iNOS” value is on record as 64.8.
Take `N=C(N)NCCC[C@H](N)C(=O)O` [L-arginine, reference compound]: in assay [10] (2.87 mM), the “invasion potential of metastatic melanoma cells” value was “markedly enhanced the invasion potential”. In addition, in assay [11] (2.87 mM), the “melanoma growth in 3D skin equivalents” value is “significantly promoted melanoma growth”. The “intracellular NO level” value with melanoma A375 cells (incubation with L-arginine, A375 cells) was “increased”.
In the case of `Cc1cc(N)nc(C[C@H]2CNC[C@H]2NCCN)c1` [Compound 5, N^1-((3S,4S)-4-((6-amino-4-methylpyridin-2-yl)methyl)pyrrolidin-3-yl)ethane-1,2-diamine], the Ki on iNOS [6] came to 5.84 µM; on nNOS [8] it was 0.098 µM.
Usually IC50 stands for the point on the concentration scale where inhibition reaches its midpoint. Lower therefore signals higher potency. For `Nc1cccc(C[C@H]2CN(Cc3ccccc3)C[C@H]2NCCCc2ccccc2)n1` [Compound 2, 6-(((3S,4S)-1-benzyl-4-((3-phenylpropyl)amino)pyrrolidin-3-yl)methyl)pyridin-2-amine], the inhibition constant (Ki) came out at 122 µM at eNOS [12], 48 µM at nNOS [8] and 609 µM on iNOS [13]. Further, in the assay with nNOS [9], the “Selectivity nNOS/eNOS” value is recorded as 2.5. Besides, the “Selectivity nNOS/iNOS” value in the assay with nNOS [9] came out at 12.7. Besides, the IC50 in the assay on Sk-Mel28 stood at 3.5 µM; in the assay with wm3211 it was 5 µM.
Take `COc1cc(/C=C/C(=O)CC(=O)/C=C/c2ccc(O)c(OC)c2)ccc1O` [curcumin]: the “L-arginine-induced NO generation” value in the assay on melanoma A375 cells (up to 50 μM) was “not affected at all; also recorded: failed to inhibit”.
With `Cc1cc(N)nc(C[C@H]2CNC[C@@H]2NCCNCCc2cccc(F)c2)c1` [Compound 8, N^1-((3R,4S)-4-((6-amino-4-methylpyridin-2-yl)methyl)pyrrolidin-3-yl)-N^2-(3-fluorophenethyl)ethane-1,2-diamine], the “invasion potential elevated by L-arginine” value in assay [10] (A375 cells, co-treatment with L-arginine 2.87 mM) is reported as “inhibited; also recorded: efficiently reversed”. For the same molecule, in assay [10] (co-treatment with DETA/NO), the “cell invasion potential elevated by DETA/NO” value is listed as “reversed”. Moreover, the “L-arginine-stimulated adhesion of A375 cells to fibroblast cells” value in assay [14] is on record as “most potent inhibition of the relative adhesion”. Also, the entries for the “induction of nNOS by DETA/NO or UVB radiation” value in [15] (listed as Cpd 8) and in [15] (listed as cpd 8) were “effectively inhibited the induction of nNOS” and “inhibited nNOS expression”, respectively. Further, the “basal nNOS levels of melanoma cells” value in [15] (up to 200 μM) is “does not affect basal nNOS levels”. In the assay with Lu1205 cells (1 μM), the “NOS activity in metastatic Lu1205 cells” value is given as “significantly reduced total NOS activities; also recorded: effectively inhibited”. In the assay with human melanoma cells (co-treatment, after 3 days), the DETA/NO-stimulated proliferation result is given as “significantly reversed”. Moreover, the “melanoma overgrowth induced by L-arginine in skin reconstruct” value in [11] (2 μM, L-arginine 2.87 mM) is listed as “reversed the overgrowth induced by L-arginine”. Also, the “L-arginine-induced NO generation” value in the assay with melanoma A375 cells (as low as 1 μM, listed as cpd 8) is on record as “inhibited; also recorded: efficiently inhibited NO production; also recorded: reduced”.
As for `Cl.Cl.Cl.NCCCCNCCCN` [Spermidine trihydrochloride (ST), Spermidine trihydrochloride, reference compound], the “NOS activity in metastatic Lu1205 cells” value in the assay with Lu1205 cells (10 μM) is reported as “comparable inhibition of NOS activity”.

These data come from patent US9090589B2, “Specific nNOS inhibitors for the therapy and prevention of human melanoma” (priority 2011, dated 2015).
